In patent publication US20160367620A1, “GLUTATHIONE” (priority 2015, published 2016):
Several values for one entry are separate records, joined by “and”; a condition that tells them apart may be missing. Equal values may be shown once. Read-outs that look alike come from different tables or passages of the source.

What was measured:
topoisomerase II = conditions: cited from earlier work
HIV-1 [1] = conditions: human macrophages, cited from earlier work
8E5 cells = conditions: HIV gene expression, low GSH-peroxidase activity; cited from earlier work
[2] = system: human venous endothelial cells and rat aortic smooth muscle cells; conditions: cited from earlier work
[3] = rat, plasma; cited from earlier work
herpes viruses = conditions: cell culture, extracellular glutathione; cited from earlier work
[4] = 1,200 mg/day i.v.; cited from earlier work
RPE cells = conditions: GSH supplemented in the medium; cited from earlier work
[5] = cited from earlier work
[6] = human, in vivo, cited from earlier work
[7] = i.v. GSH coadministration; cited from earlier work
HIV [8] = conditions: 75 mg/kg in two equally divided doses
[9] = cited from earlier work; remark: listed apart in the source
[10] = system: mouse neuroblastoma cells; conditions: coadministration; cited from earlier work
Mouse [11] = conditions: pretreatment; cited from earlier work
[12] = human, in vivo, po, 15 mg/kg; cited from earlier work
[13] = system: human immunodeficiency virus (HIV) expression; conditions: U1 cells; cited from earlier work
NFκB and COX-2 = conditions: cited from earlier work
[14] = human, in vivo, iv
Source text: The kinetics and the effect of glutathione on plasma and urine sulfhydryls were studied in ten healthy human volunteers.

HIV-1 [15] = conditions: cited from earlier work; for persistence of anti-HIV-1 effect in culture: single pulse exposure, monocyte/macrophages in vitro
cytotoxic T-lymphocytes = conditions: mouse, injection of GSH on the third day post immunization; cited from earlier work
[16] = system: high-affinity component of mitochondrial glutathione transport; conditions: stimulated by ATP; cited from earlier work
human IL-4 production = conditions: stimulated peripheral blood T cells, Th0- and Th2-like T cell clones; cited from earlier work
[17] = system: Concanavalin A stimulated proliferation of splenocytes; conditions: rats, dietary GSH supplementation; cited from earlier work
hepatocellular carcinoma = conditions: 5 g oral per day, two female patients who survived 1 year; cited from earlier work
microglial cells = conditions: NO and superoxide generated via iNOS and NADPH-oxidase; cited from earlier work
[18] = system: glucose-induced insulin secretion; conditions: infusion 10 mg/min for 120 min, cited from earlier work
monocyte-macrophages = conditions: by conjugation of HNE; cited from earlier work
HIV [19] = conditions: chronically infected cells, exogenous GSH; cited from earlier work
guinea pigs = conditions: ascorbate deficient guinea pigs, 3.75 mmol/kg daily (1,152 mg/kg daily) in three divided doses; cited from earlier work
[20] = system: Peripheral Blood Mononuclear Cells (PBMC's)
Description: A total of 10,000 glutathione assays were performed.
The Phase I/II data, was based on approximately 10,000 glutathione assays of peripheral blood mononuclear cells (PBMC's) of HIV positive people given the drug regimen.
The study detailed in Appendix B administered the glutathione to HIV infected, otherwise healthy males between 18 and 65, with CD4+ cell counts above 500, not on any other medications.
24 HIV positive people received glutathione in a clinical trial. The first dose of one gram was taken at 0 time, or 10:00 a.m., and the second dose at 3 hours, or 1:00p.m. A baseline was measured two weeks earlier, on the same patient. A temporary intravenous catheter was in place for 7 hours to permit frequent blood sampling at the numerous time points.

Mouse [21] = conditions: cited from earlier work
[22] = system: murine macrophage J774 cells; conditions: exposure to the NO-releasing compound; cited from earlier work
HIV-1 LTR = conditions: Jurkat cells; cited from earlier work
NFκB = conditions: Jurkat cells, various concentrations; cited from earlier work
HUVEC and QG90 cell = conditions: pretreatment of HUVEC, IL-1 induced; cited from earlier work
Mouse [23] = conditions: subcutaneous injection; cited from earlier work
P-selectin = conditions: human endothelial cells; cited from earlier work

## O=[N+]([O-])c1ccc(SSc2ccc([N+](=O)[O-])cn2)nc1 [2,2′ dithiobis (5-nitropyridine)]
Topoisomerase II
  topoisomerase II-mediated DNA cleavage: caused topoisomerase II-mediated DNA cleavage

## CCCCS(=N)(=O)CCC(N)C(=O)O (centres unmarked) [BSO, buthionine sulfoximine]
HIV-1 [1]
  HIV yield in the supernatant: significantly increased

## CCCCCC(/C=C/C=C\C/C=C\C/C=C\CCCC(=O)O)OO (centres unmarked) [Example 15-HPETE, 15-hydroperoxy eicosatetraenoic acid]
8E5 cells
  increase in sensitivity of 8E5 cells to killing: 10 fold

## N[C@@H](CCC(=O)N[C@@H](CS)C(=O)NCC(=O)O)C(=O)O [GSH, gamma-glutamyl-cysteinyl-glycine]
[2]
  peroxynitrite induced suppression of mitochondrial respiration, nitrotyrosine formation, protein oxidation, DNA single strand breakage: attenuated
[3]
  share of the remaining 30% as GSSG: 9.5%
  share of the remaining 30% as the mixed disulfide with cysteine: 62.6%
Herpes viruses
  reproduction of herpes viruses: inhibited or reduced
[4]
  hematologic parameters (hematocrit, hemoglobin, blood count) compared to baseline: significantly increase studied hematologic parameters
RPE cells
  growth of RPE cell cultures: thrive
[5]; 3 grams daily for three months, 46 AIDS patients
  benefit: no benefit was conclusively demonstrated
[5]; human, in vivo
  adverse effects: No significant GSH-related adverse effects were reported
[6]; iv
  volume of distribution of exogenous glutathione: 176-107 MI/Kg
[6]
  plasma concentration of total cyst(e)ine: decreased
[7]
  nephrotoxicity of cisplatin and/or cyclophosphamide combination therapy: reduces associated nephrotoxicity
HIV [8]; four far advanced AIDS patients who followed the regimen
  survival after starting on GSH: 3 years
HIV [8]; four patients
  CD4+ cell counts: did not restore their CD4+ cell counts to any extent
[9]; 1,844 mg i.v. bolus, hypertensive patients and non-hypertensive diabetics
  systolic and diastolic blood pressure: rapid and significant decrease in both systolic and diastolic blood pressure
[9]; 1,844 mg i.v. bolus, normal healthy subjects
  blood pressure: no effect
[9]; 1,844 mg i.v. bolus
  return of blood pressure to baseline: ≤ 30 min
[9]; 3,699 mg dose, normal subjects
  blood pressure values: significant decrease in the blood pressure values in normal subjects
[10]
  deleterious effects of methylmercury: largely prevented
Mouse [11]
  morphine-induced lethality: protects against morphine-induced lethality
[12]
  rise of plasma glutathione levels over the basal concentration: 1.5-10 fold
[13]
  cytotoxic or cytostatic effects: absence of cytotoxic or cytostatic effects
  induction of HIV expression mediated by PMA, TNF-α, or IL-6: suppressed in a dose-dependent fashion
NFκB and COX-2
  activation of NFκB and COX-2 by H. pylori infection: inhibited
[14]
  half-life: 14.1-9.2 minutes
HIV-1 [15]; in vitro
  HIV-1 expression in peripheral blood mononuclear cells (PBMC): blocked or substantially reduced
  cellular toxicity in monocyte/macrophages: without producing detectable cellular toxicity
HIV-1 [15]; infected monocytes, intracellular glutathione raised to the high end of the normal range
  duration of suppression of HIV production: about 35 days
HIV-1 [15]; single pulse exposure of HIV-1-infected monocyte/macrophages
  HIV-1 p24 antigen levels and reverse transcriptase activity: sustained, concentration-dependent decrease
HIV-1 [15]
  persistence of anti-HIV-1 effect in culture: at least 35 days
HIV-1 [15]; listed as glutathione
  persistence of anti-HIV-1 effect in culture: 35 days
Cytotoxic T-lymphocytes
  augmentation of cytotoxic activity: 5 fold
[16]
  V max: approximately 0.5 n mol/min per mg of protein
Human IL-4 production
  human IL-4 production: decreased in a dose-dependent manner
HIV-1 [1]; exogenous GSH
  production of p24 gag protein and virus infectivity: strongly suppressed
[17]
  age-associated decline of immune response: reverse age-associated decline of immune response
Hepatocellular carcinoma
  tumor growth: regression or stagnation of their tumor growth
Microglial cells
  peroxynitrite formation: significantly decreased peroxynitrite formation
[18]
  insulin clearance and action: No effect
[18]; patients with IGT
  glucose-induced insulin secretion: significantly potentiated glucose-induced insulin secretion
monocyte-macrophages
  macrophage death: protected against macrophage death
HIV [19]
  virus infectivity, budding and release of virus particles: strongly suppresses
Guinea pigs
  toxicity: toxic
[20]; PBMC's of HIV positive people
  intracellular glutathione insufficiency: correction of the intracellular glutathione insufficiency was evident
[20]; in vivo
  dose dependence of PBMC glutathione: dose response relationship
  safety: no evidence of toxicities
[20]; male, human, in vivo, po
  absorption and distribution within the PBMC completed: 60 min
  share absorbed and intracellular: 80%
  start of distribution into PBMC's / absorption after oral ingestion: ≤ 0.5 h
Mouse [21]; Intramuscular
  LD50: 4000 mg/kg
Mouse [21]; Intraperitoneal
  LD50: 4020 mg/kg and 6815 mg/kg
Mouse [21]; Intravenous
  LD50: 2238 mg/kg
Mouse [21]; Oral
  LD50: 5000 mg/kg
Mouse [21]; Subcutaneous
  LD50: 5000 mg/kg

## CCN1C(=O)C=CC1=O [NEM, N-ethyl maleimide]
Topoisomerase II
  topoisomerase II-mediated DNA cleavage: caused topoisomerase II-mediated DNA cleavage

## CC(=O)N[C@H](C(=O)O)C(C)(C)SN=O [SNAP, S-nitroso-N-acetyl penicillamine]
[22]
  viability of macrophages: diminished

## N/C(=N\O)c1cc(O)c(O)c(O)c1 [TD, Trimidox]
HIV-1 LTR
  induction of HIV-1 LTR-mediated gene expression by TNF-α and Tat: significantly suppressed
NFκB
  TNF-α-induced NFκB binding: inhibited

## CC(=O)Oc1ccccc1C(=O)O [aspirin]
HUVEC and QG90 cell
  cell-to-cell attachment of cancer cells to HUVEC: efficiently blocked the cell-to-cell attachment in a dose-dependent manner

## CN1CC[C@]23c4c5ccc(O)c4O[C@H]2C(=O)C=C[C@H]3[C@H]1C5 [morphinone]
Mouse [23]
  toxicity relative to morphine: 9 times

## CC(=O)CCCCn1c(=O)c2c(ncn2C)n(C)c1=O [pentoxyphillin]
HUVEC and QG90 cell
  cell-to-cell attachment of cancer cells to HUVEC: efficiently blocked the cell-to-cell attachment in a dose-dependent manner

## O=C([O-])c1ccccc1O.[Na+] [sodium salicylate]
P-selectin
  IL-4 induced expression of P-selectin: inhibited

## glutathione ester [GSE]
[13]
  induction of HIV expression mediated by PMA, TNF-α, or IL-6: suppressed in a dose-dependent fashion
